Data reported in ChEMBL document CHEMBL2390878, “Novel 1H-imidazol-2-amine derivatives as potent and orally active vascular adhesion protein-1 (VAP-1) inhibitors for diabetic macular edema treatment” (Bioorg Med Chem, 2013).
Activity calls are given as the source filed them. The rule behind the calls is not given here.

Legend:
[1] = target: T1, Amine oxidase [copper-containing] 3 (Rattus norvegicus, UniProt O08590); assay: Inhibition of rat VAP-1 expressed in CHO cells using [14C]-benzylamine as substrate preincubated for 30 mins prior to substrate addition measured after 1 hr by scintillation spectrometric analysis; assay type: cell-based
T1 sequence (O08590 whole entry): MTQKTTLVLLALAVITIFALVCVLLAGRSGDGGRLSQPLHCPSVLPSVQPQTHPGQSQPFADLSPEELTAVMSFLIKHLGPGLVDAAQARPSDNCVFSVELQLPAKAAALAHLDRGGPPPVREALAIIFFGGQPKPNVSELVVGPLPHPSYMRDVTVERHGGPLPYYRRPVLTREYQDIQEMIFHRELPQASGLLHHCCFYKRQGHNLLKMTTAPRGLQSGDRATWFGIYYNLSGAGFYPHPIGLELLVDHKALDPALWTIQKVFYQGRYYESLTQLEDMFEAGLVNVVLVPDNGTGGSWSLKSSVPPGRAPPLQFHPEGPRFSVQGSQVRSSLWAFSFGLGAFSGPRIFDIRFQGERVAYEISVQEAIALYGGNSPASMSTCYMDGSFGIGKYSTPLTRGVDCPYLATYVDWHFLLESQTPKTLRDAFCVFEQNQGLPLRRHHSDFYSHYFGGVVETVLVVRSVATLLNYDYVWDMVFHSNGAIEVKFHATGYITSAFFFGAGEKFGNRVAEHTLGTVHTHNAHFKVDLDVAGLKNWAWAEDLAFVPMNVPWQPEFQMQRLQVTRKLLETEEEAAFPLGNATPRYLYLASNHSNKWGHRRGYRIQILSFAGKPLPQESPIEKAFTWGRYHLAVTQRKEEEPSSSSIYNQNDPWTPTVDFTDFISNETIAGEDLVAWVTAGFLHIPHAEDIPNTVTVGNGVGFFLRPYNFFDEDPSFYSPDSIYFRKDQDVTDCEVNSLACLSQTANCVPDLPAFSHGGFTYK

[2] = target: T2, Amine oxidase [copper-containing] 3 (Homo sapiens, UniProt Q16853); assay: Inhibition of human VAP-1 expressed in CHO cells using [14C]-benzylamine as substrate preincubated for 30 mins prior to substrate addition measured after 1 hr by scintillation spectrometric analysis; assay type: cell-based
T2 sequence (Q16853 whole entry): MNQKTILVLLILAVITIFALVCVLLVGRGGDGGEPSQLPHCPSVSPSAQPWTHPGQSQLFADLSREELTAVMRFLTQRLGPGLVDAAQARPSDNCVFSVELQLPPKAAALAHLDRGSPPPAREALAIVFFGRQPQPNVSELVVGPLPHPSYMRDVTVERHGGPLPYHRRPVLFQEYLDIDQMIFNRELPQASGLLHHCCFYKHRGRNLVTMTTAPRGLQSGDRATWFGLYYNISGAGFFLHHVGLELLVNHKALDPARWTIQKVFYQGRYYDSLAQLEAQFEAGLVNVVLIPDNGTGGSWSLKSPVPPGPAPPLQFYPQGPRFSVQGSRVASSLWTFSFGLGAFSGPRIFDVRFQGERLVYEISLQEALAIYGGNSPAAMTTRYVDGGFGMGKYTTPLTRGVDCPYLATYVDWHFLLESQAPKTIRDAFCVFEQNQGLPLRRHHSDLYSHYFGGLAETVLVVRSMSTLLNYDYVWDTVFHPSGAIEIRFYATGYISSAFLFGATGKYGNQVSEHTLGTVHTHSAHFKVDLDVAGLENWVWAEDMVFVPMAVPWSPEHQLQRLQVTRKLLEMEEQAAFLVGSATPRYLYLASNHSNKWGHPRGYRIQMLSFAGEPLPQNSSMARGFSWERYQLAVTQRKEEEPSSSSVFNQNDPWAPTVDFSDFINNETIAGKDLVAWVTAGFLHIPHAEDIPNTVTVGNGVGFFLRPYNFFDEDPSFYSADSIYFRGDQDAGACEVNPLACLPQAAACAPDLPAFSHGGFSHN

Rattus norvegicus [3] = assay: Inhibition of VAP-1 in streptozotocin-induced diabetic Sprague-Dawley rat plasma using [14C]-benzylamine as substrate at 10 mg/kg, po administered for 2 weeks after streptozotocin-challenge by scintillation spectrometric analysis; assay type: functional, organism-based; parameters: dose 10 mg/kg
Homo sapiens [4] = organism: Homo sapiens; assay: Selectivity ratio of IC50 for human recombinant MAO-B to IC50 for human VAP-1
[5] = target: T3, Amine oxidase [flavin-containing] B (Homo sapiens, UniProt P27338); assay: Inhibition of human recombinant MAO-B using benzylamine as substrate after 1 hr by fluorometric assay
T3 sequence (P27338 whole entry): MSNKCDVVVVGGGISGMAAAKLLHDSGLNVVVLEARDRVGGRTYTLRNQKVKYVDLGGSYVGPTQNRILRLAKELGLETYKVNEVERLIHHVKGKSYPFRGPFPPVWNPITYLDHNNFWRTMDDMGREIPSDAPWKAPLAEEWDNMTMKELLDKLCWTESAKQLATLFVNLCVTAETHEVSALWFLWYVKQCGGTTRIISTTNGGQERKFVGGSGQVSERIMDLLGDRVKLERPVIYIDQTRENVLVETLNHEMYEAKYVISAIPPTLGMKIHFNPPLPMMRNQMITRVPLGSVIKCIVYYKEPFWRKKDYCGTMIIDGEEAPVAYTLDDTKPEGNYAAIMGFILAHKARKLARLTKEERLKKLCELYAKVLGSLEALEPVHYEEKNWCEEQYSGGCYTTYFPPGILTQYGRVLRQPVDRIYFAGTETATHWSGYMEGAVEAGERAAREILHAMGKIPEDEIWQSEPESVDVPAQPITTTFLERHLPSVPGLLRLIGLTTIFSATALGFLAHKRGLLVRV

Homo sapiens [6] = organism: Homo sapiens; assay: Selectivity ratio of IC50 for human recombinant MAO-A to IC50 for human VAP-1
[7] = target: T4, Amine oxidase [flavin-containing] A (Homo sapiens, UniProt P21397); assay: Inhibition of human recombinant MAO-A using 5-hydroxytryptamine as substrate after 1 hr by fluorometric assay
T4 sequence (P21397 whole entry): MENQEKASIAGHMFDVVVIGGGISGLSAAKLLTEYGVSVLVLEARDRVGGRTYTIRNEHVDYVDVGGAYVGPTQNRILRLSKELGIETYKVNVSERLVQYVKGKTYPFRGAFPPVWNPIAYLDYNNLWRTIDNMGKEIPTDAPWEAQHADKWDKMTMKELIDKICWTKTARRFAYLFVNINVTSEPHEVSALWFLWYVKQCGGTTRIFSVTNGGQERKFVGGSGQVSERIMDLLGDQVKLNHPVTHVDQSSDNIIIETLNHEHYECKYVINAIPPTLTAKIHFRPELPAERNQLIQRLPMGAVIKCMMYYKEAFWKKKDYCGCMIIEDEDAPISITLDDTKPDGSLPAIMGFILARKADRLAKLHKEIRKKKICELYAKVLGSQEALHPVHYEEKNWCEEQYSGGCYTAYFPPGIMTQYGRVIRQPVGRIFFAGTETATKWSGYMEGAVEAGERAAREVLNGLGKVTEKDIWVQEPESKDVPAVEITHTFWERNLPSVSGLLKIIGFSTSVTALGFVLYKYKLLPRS

Rattus norvegicus [8] = assay: Inhibition of ocular permeability in streptozotocin-induced diabetic Sprague-Dawley rat at 10 mg/kg, po administered for 2 weeks after streptozotocin-challenge measured 24 hrs after final administration of compound; assay type: functional, organism-based; parameters: dose 10 mg/kg; conditions: Eye

IC50 [1]	IC50 [2]	SMILES	other results
9.3 µM	> 100 µM	Cc1ccc2nc(N)[nH]c2c1	
0.0051 µM	0.019 µM	CC(=O)Nc1nc(CCc2ccc(Cc3c[nH]c(N)n3)cc2)cs1	inhibition (Rattus norvegicus [3]): Active; Ratio IC50 (Homo sapiens [4]): > 580; IC50 [5]: 11 µM; Ratio IC50 (Homo sapiens [6]): > 580; IC50 [7]: > 100 µM; inhibition (Rattus norvegicus [8]): Active
4.8 µM	> 100 µM	Nc1ncc(CCc2ccccc2)[nH]1	
0.018 µM	2.2 µM	CC(=O)Nc1nc(CCc2ccc(CCc3c[nH]c(N)n3)cc2)cs1	
		CC(=O)Nc1nc(CCc2ccc(NC(=N)N)cc2)cs1	IC50 [5]: 60 µM; IC50 [7]: > 100 µM
1 µM	> 100 µM	Cc1cccc2[nH]c(N)nc12	
63 µM	> 100 µM	Nc1cc2ccccc2[nH]1	
80 µM	> 100 µM	Cn1c(N)nc2ccccc21	
> 100 µM	> 100 µM	NCc1nc2ccccc2[nH]1	
0.15 µM	13 µM	CC(=O)Nc1nc(CCc2ccc(-c3c[nH]c(N)n3)cc2)cs1	
78 µM	> 100 µM	N=C(N)Nc1ccccc1 [PHENYLGUANIDINE]	
> 100 µM	> 100 µM	NC1=NCCN1c1ccccc1	
90 µM	> 100 µM	Nc1ncc[nH]1	
1 µM	4.1 µM	Nc1nc2ccccc2[nH]1	

SMILES	IC50 [1]	IC50 [2]	other results
c1ccc(NC2=NCCN2)cc1	> 100 µM	> 100 µM	
c1ccc2[nH]cnc2c1 [BENZIMIDAZOLE]	> 100 µM	> 100 µM	
Nc1nc(-c2ccccc2)c[nH]1	44 µM	> 100 µM	
Nc1nc(Cc2ccccc2)c[nH]1	0.42 µM	32 µM	
